The values that follow come from BindingDB's records for doi:10.1021/acschembio.6b00782 (University of Michigan, 2017).

For assay [1], the target named is T1, Paired box protein Pax-2 [1-81] (Human, UniProt Q02962).
T1 construct: 1-81
Kind of assay: Biolayer Interferometry Binding Assay. The protocol: After biotinylation, the protein was bound to saturation to the biosensor of an Octet RED Multichannel platform (ForteBio). All binding and equilibration was done in PBS with 0.1% DMSO. For binding to the compound, sensors were incubated for 300s in EG1 at the following concentrations: 0.5, 1, 2, 4, 8, 16, 31, 62, 125, and 250 μM. Disassociation was then measured for 350 s in PBS to determine affinity constants. Kd is calculated from steady state analysis.
(In general: BLI is a label-free optical method that tracks binding on a fibre tip over time.)

Assay [2] concerns the target T1, Paired box protein Pax-2 [1-81]. Kind of assay: Biolayer Interferometry Binding Assay. How it is done: After biotinylation, the protein was bound to saturation to the biosensor of an Octet RED Multichannel platform (ForteBio). All binding and equilibration was done in PBS with 0.1% DMSO. For binding to the compound, sensors were incubated for 300s in EG1 at the following concentrations: 0.5, 1, 2, 4, 8, 16, 31, 62, 125, and 250 μM. Disassociation was then measured for 350 s in PBS to determine affinity constants. Kd is calculated from Kon and Koff.
The source holds these as a separate data set.

T1 sequence (Q02962 1-81): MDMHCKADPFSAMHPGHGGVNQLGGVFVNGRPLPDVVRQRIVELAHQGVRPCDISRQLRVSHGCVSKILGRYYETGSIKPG

Consider `COc1ccccc1C(=O)Nc1ccc(C(=O)Nc2ccccc2C(=O)O)cc1` [EG1], for which the equilibrium dissociation constant (Kd) – broadly, the concentration at which binding is half-saturated – in assay [1] is 1.5 µM; in assay [2], 1.35 µM.
